Assay results taken from patent US20230381332A1, “Deuterated Camptothecin Derivative And Antibody-drug Conjugate Thereof” (Baili-Bio (Chengdu) Pharmaceutical Co., Ltd., priority 2020, published 2023).

Assay: Clearance half-life test of deuterated camptothecin drugs in liver microsomes
Type: in vitro ADME, Human
Protocol: Embodiment 36: Clearance Half-Life Test of Deuterated Camptothecin Drugs
Human liver microsomes (supplied by Xenotech))
1. Add the working solution of the test substance to the liver microsome working solution and pre-incubate at 37° C. for 5 minutes, then add the prepared NADPH working solution and mix well. Make the reaction volume of the incubation system reach 200 μL, and the liver microsomes concentration in the incubation system is 1.0 mg/mL, the test substance concentration is 10 μM. The incubation tube is incubated in a water bath at 37° C. for 120 minutes. In the incubation system of the test substance, total organic solvents (DMSO and acetonitrile or other organic The minimum volume content of the solvent) is <1%, and the DMSO content is <0.1%. All operations are performed on wet ice.
2. For the blank sample, add the corresponding volume of phosphate buffer solution instead of the working solution of the test substance. For the 0 min sample, first add the stop solution and the liver microsome solution and mix well, and then add the working solution of the test substance.
3. At the end of the incubation, add 400 μL of stop solution to terminate the reaction, and remove the incubation sample from the water bath.
4. After the reaction was terminated, the sample was shaken and centrifuged at a centrifugal force of 4700 g for 10 minutes. After centrifugation, 200 μL of the supernatant was pipetted into a 96-well plate and directly used for LC-MS analysis to analyze metabolites and main drug ratio.

[1] = human liver microsomes 1.0 mg/ml, 10 μM test article, NADPH 1.0 mM, 37° C., 120 minutes

Row | SMILES | Ratio of main drug after incubation [1] | Ratio of main drug after incubation (human, 120 min, 10 μM)
1 | CC[C@@]1(O)C(=O)OCc2c1cc1n(c2=O)Cc2c-1nc1cc(F)c(C)c3c1c2[C@@H](NC(=O)CO)CC3 [Compound 2, reference compound] | 65% | 
2 | CC[C@@]1(O)C(=O)OCc2c1cc1n(c2=O)Cc2c-1nc1cc(F)c(C)c3c1c2[C@@H](NC(=O)[C@H](C)O)CC3 [Compound 3, reference compound] |  | 56%
3 | CC[C@@]1(O)C(=O)OCc2c1cc1n(c2=O)Cc2c-1nc1cc(F)c(C)c3c1c2[C@@H](NC(=O)[C@H](O)C(F)(F)F)CC3 [Compound 5, reference compound] |  | 73%
4 | CC[C@@]1(O)C(=O)OCc2c1cc1n(c2=O)Cc2c-1nc1cc(F)c(C)c3c1c2[C@@H](NC(=O)[C@@H](O)C1CC1)CC3 [Compound 7, reference compound] |  | 85%
5 | [2H]C(O)C(=O)N[C@H]1CCc2c(C)c(F)cc3nc4c(c1c23)Cn1c-4cc2c(c1=O)COC(=O)[C@]2(O)CC (stereo partly drawn) [D-D1] | 98% | 
6 | [2H]C(C)(O)C(=O)N[C@H]1CCc2c(C)c(F)cc3nc4c(c1c23)Cn1c-4cc2c(c1=O)COC(=O)[C@]2(O)CC (stereo partly drawn) [D-D3] |  | 97%
7 | [2H]C(O)(C(=O)N[C@H]1CCc2c(C)c(F)cc3nc4c(c1c23)Cn1c-4cc2c(c1=O)COC(=O)[C@]2(O)CC)C(F)(F)F (stereo partly drawn) [D-D5] |  | 99%
8 | [2H]C(O)(C(=O)N[C@H]1CCc2c(C)c(F)cc3nc4c(c1c23)Cn1c-4cc2c(c1=O)COC(=O)[C@]2(O)CC)C1CC1 (stereo partly drawn) [D-D7] |  | 96%
9 | [2H]C([2H])([2H])C([2H])(O)C(=O)N[C@H]1CCc2c(C)c(F)cc3nc4c(c1c23)Cn1c-4cc2c(c1=O)COC(=O)[C@]2(O)CC (stereo partly drawn) [D-D11] |  | 96%
10 | [2H]C([2H])([2H])N(C(=O)CO)[C@@H]1CCc2c(C)c(F)cc3nc4c(c1c23)Cn1c-4cc2c(c1=O)COC(=O)[C@]2(O)CC [D-D15] |  | 91%
11 | [2H]C([2H])([2H])C(O)C(=O)N(C)[C@@H]1CCc2c(C)c(F)cc3nc4c(c1c23)Cn1c-4cc2c(c1=O)COC(=O)[C@]2(O)CC (stereo partly drawn) [D-D19] |  | 97%
